Reference: article PMC6804243, “Small-Molecule Inhibition of UBE2T/FANCL-Mediated Ubiquitylation in the Fanconi Anemia Pathway” (ACS Chemical Biology, 2019)
Entries after “also recorded” stand apart in the source; their conditions may differ.

How the values were obtained:
Type in all cases: biochemical
UBE1 = system: T1, UBE1; assay: Gel-based ubiquitylation assay (UBE2T/GST-FANCLRING), autoubiquitylation of UBE1; settings: compound 100 μM; Western blot probed for biotin
T1 construct: purchased Boston Biochem

UBE2D1 / GST-FANCLRING = system: T2, UBE2D1 / GST-FANCLRING; assay: Gel-based ubiquitylation assay, E2 = UBE2D1, E3 = GST-FANCLRING; settings: 30 min at 37 °C, Western blot
T2 construct: the RING domain (residues 275–375) of the E3 FANCL (FANCLRING); His6 (N); made in house; host or cells: E. coli Rosetta (DE3)
Protocol: (§1) Figure 2 Gel-based ubiquitylation assays with confirmed HTRF hits. […] Western blots (WB) probed for GST or biotin as labeled. Reactions contained 20 nM His6-UBE1, 50 nM E2, 250 nM GST-E3, 500 nM biotinylated ubiquitin: (a) E2 = UBE2T, E3 = GST-FANCLRING, 30 min of reaction at 37 °C; (b) E2 = UBE2D1, E3 = GST-FANCLRING, 30 min of reaction at 37 °C; and (c) E2 = UBE2D1, E3 = GST-RNF8, 10 min of reaction at 37 °C.
In order to explore the selectivity of CU1, CU2, CU9, CU10, and CU12, we conducted a counter-screen against other E2 and E3 combinations. Since members of the UBE2D family of E2s are known to ubiquitylate multiple substrates in vitro,[13] a ubiquitylation assay featuring UBE2D1 and GST-FANCLRING was performed. With UBE2D1, multiple ubiquitylated GST-FANCLRING species could be observed (Figure 2b).
(§2) Purified protein was concentrated using a Vivaspin-6 concentrator with a 10 kDa MW cut-off (Vivascience) and flash-frozen in small aliquots for storage at […]
(§3) Cy5 labelling of ubiquitin. To a 5 mg/mL solution of recombinant human ubiquitin (Boston Biochem) in 0.1 M NaHCO3 pH 8.3, was added a 4-fold molar excess of Cyanine5 NHS ester (Lumiprobe). The reaction was incubated at 23 °C for 4 hours in the dark. The protein was separated from unreacted dye by passage through a PD-10 desalting column (GE Healthcare) equilibrated with PBS. Purified protein was concentrated using a Vivaspin-6 concentrator with a 3 kDa MW cut-off (Vivascience) and flash-frozen in small aliquots for storage […]
(§4) Homogeneous Time-Resolved Fluorescence (HTRF) Assay. GST-FANCLRING (200 nM) was incubated with anti-GST Tb (CisBio, #61GSTTL) (2.5 ng final) at room temperature for 30 minutes in assay buffer (50 mM Tris-HCl pH 8.0, 1 mM TCEP, 5 mM MgCl2, 0.005% Tween-20). Meanwhile, 10 μL of UBE2T in assay buffer (or assay buffer alone for no enzyme controls) was incubated in a white 384-well plate (Corning) with 20 nL DMSO or compound in DMSO. After 30 minutes, the GST-RINGRING solution was added to an equal volume solution containing His-UBE1 (Boston Biochem) (16 nM), Cy5-ubiquitin (400 nM), ATP (0.8 mM) in assay buffer. 10 μL of this solution was immediately added to each well of the 384 -well plate containing UBE2T or buffer. F inal concentrations: His -UBE1 (4 nM), UBE2T (6 nM), GST -RINGRING (50 nM), Cy5-ubiquitin (100 nM), ATP (0.2 mM), compound (10 or 20 μM) in 0.1 %
(§5) (v/v) DMSO. After a 10 minute incubation at 23 °C, 5 µL of a 50 mM EDTA solution were added to each well to stop the reaction. Signal was measured at λEx 340 nm and λEm 665 nm and 620 nm using a PHERAstar FS plate reader
(§6) (BMG Labtech). A ratio was calculated as [λEm(665)/λEm(620)] × 104 for each well and this was used to determine the percent inhibition for test compounds.
(§7) Gel-based ubiquitylation assays. Assays were carried out in a total volume of 10 µL containing 20 nM His6-UBE1 (Boston Biochem), 50 nM UBE2T, 250 nM GST-E3 and 500 nM biotinylated ubiquitin (Boston Biochem) in buffer (50 […]
(§8) Reaction mixtures were incubated for the indicated time at 37 °C and stopped by the addition of 2X reducing SDS -PAGE sample buffer, separated on NuPAGE Novex 4 –12% Bis/Tris gradient gels (Invitrogen) and visualized by Western blotting using the indicated antibodies (Table S3).
Cell culture. […]

UBE2D1 / GST-RNF8 = system: T3, UBE2D1 / GST-RNF8; assay: Gel-based ubiquitylation assay, E2 = UBE2D1, E3 = GST-RNF8; settings: 10 min at 37 °C, Western blot
T3 construct: His6 (N); made in house; host or cells: E. coli Rosetta (DE3)
Protocol: as §1
A further ubiquitylation assay was performed with an alternative E3, RNF8, which also plays important roles in the DDR.[14] In contrast to GST-FANCLRING, long polyubiquitin chains were attached to GST-RNF8 by UBE2D1 (Figure 2c).
as §2, §3, §4, §5, §6, §7, §8
Cell culture. U2OS cells were cultured at 37 °C in a humidified atmosphere and 5% (v/v) CO2 in Dulbecco's Modified Eagle Medium (DMEM; Sigma-Aldrich) supplemented with 10% (v/v) fetal bovine serum (FBS), 100 units/ml of penicillin, […] of streptomycin and 292 μg/mL L-glutamine.
Cell extract preparation and immunoblotting. U2OS cells were lysed in buffer containing 50 mM Tris-HCl pH 7.5, 2% SDS, 10 mM NEM, cocktail protease inhibitor (Roche) and phosphatase inhibitor cocktail followed by sonication 100 µg of extracts were boiled for 5 mins at 95 °C in 5X loading buffer and loaded onto NuPAGE Novex 4–12% Bis/Tris gradient gels
(Invitrogen), or NuPAGE Novex 3-8% Tris/Acetate gradient gels (Invitrogen) for detection of mUb-FANCD2. After separation the gels were transferred to PVDF and the membranes were blocked with Tris-buffered saline containing 0.1% (v/v) Tween-20 (TBST) and 5% (v/v) bovine serum albumin (BSA) and […]

SMILES	autoubiquitylation of UBE1 (UBE1)	ubiquitylation of GST-FANCLRING (UBE2D1 / GST-FANCLRING)	ubiquitylation of GST-RNF8 and UBE2D1 (UBE2D1 / GST-RNF8)	ubiquitylation of GST-RNF8 and UBE2D1 (UBE2D1 / GST-RNF8; listed as CU 1)
NCCN1C(=O)CC[C@H]2CN(Cc3cccc(-c4ccco4)c3)CC[C@H]21 [CU1]	did not affect ubiquitylation of either UBE2T or UBE1	essentially abolished the ubiquitylation of GST-FANCLRING	but not GST-RNF8	no detectable effects on ubiquitylation of GST-RNF8 and UBE2D1
CCN1CCN(c2cc(C)nc3nc(CN4CCCCC4C)nn23)CC1 (stereo not shown) [CU2]	did not affect ubiquitylation of either UBE2T or UBE1	essentially abolished the ubiquitylation of GST-FANCLRING	but not GST-RNF8; also recorded: no detectable effects on ubiquitylation of GST-RNF8 and UBE2D1	–
Cc1nnc(N(C)CC2CCN(CC(C)O)CC2)c(C#N)c1C (stereo not shown) [CU9]	did not affect ubiquitylation of either UBE2T or UBE1	essentially abolished the ubiquitylation of GST-FANCLRING	but not GST-RNF8; also recorded: no detectable effects on ubiquitylation of GST-RNF8 and UBE2D1	–
NC(=O)[C@@H]1CCCN1C(=O)c1cc(-n2cccc2)ccc1Cl [CU12]	somewhat impaired the autoubiquitylation of UBE1	essentially abolished the ubiquitylation of GST-FANCLRING	appeared to inhibit the ubiquitylation of all species in the assay	–
